From patent US20180117249A1, “Warburg Effect Targeted Chemotherapy Apparatus” (Cure Cancer Worldwide LLC, priority 2010, published 2018)

Legend:
[1] = system: breast cancer; conditions: diabetic women taking metformin; diabetic control 8%, non-diabetic control 16%; cited from earlier work
[2] = cited from earlier work
[3] = system: breast cancer cells in culture; conditions: methotrexate with insulin vs methotrexate alone; cited from earlier work
[4] = system: human esophageal and colonic cancer cells; conditions: cited from earlier work
[5] = system: MDA-MB-231 breast cancer cells; conditions: cells incubated with insulin; cited from earlier work
[6] = system: breast cancer cells; conditions: cells incubated with insulin; cited from earlier work
[7] = system: breast cancer cells; conditions: asynchronous population; 37% in controls; cited from earlier work
[8] = Insulin-induced hypoglycemia safety profile (Xi'an, China); type: in vivo, patients
From the text: Cure Cancer Worldwide in conjunction with several hospitals in China have been treating patients using a combination of insulin induced hypoglycemia in combination with standard chemotherapy treatments, generally given multiple times in a 3 week window but at 10% the standard dose. The safety of these treatments has been evaluated as well as the side effects.

[9] = Hypoglycemic glucose clamp in SCID mouse xenograft model; type: in vivo
Protocol: The glucose clamp technique has been well developed in animals models for the purpose diabetes research. (Ayala, et al., 2011) We have adapted this technique for use in a SCID mouse xenograft model. FIG. 3 gives a schematic of this procedure. Briefly, mice are injected subcutaneously in the hind flank with a standard amount of cancer cells sufficient to cause a tumor to grow. After a few weeks when tumor volume measures around 300-500 mm3, mice undergo jugular vein cannulation. Mice are fasted for 5 hours prior to treatment with chemotherapy drugs. Depending on the pharmacokinetics of the drug, drugs are either given before the start of the glucose clamp or during the clamp procedure to correspond to the maximum effectiveness of the drug during the “hypoglycemia therapeutic window”. Injection pumps containing insulin, glucose and washed erythrocytes from donor mouse blood are connected to a swivel mixer which is in turn connected to the jugular catheters. For the initiation of the hypoglycemic clump, a bolus injection of insulin is given to reduce initial blood glucose levels which typically take around 30 minutes to lower blood glucose. Then a steady state of insulin and glucose is given to maintain blood glucose levels between 30-50 mg/dL for two hours. In practice, blood glucose levels range from 22-51 mg/dl with an average around 34 mg/dL (1.9 mmol/L). […]

[10] = insulin several hours before 5-FU vs 5-FU without insulin

CN(C)C(=N)N=C(N)N [metformin]
pathological complete response (pCR) rate [1]: 24%

O=CC[C@@H](O)[C@H](O)[C@H](O)CO [2DG, 2-deoxyglucose]
ECG effect ([2]; Raez, et al., 2013): irregular Electrocardiograph (ECG) heart rhythms
main failure point in the clinic ([2]; clinical trials): induced hyperglycemia

CN(Cc1cnc2nc(N)nc(N)c2n1)c1ccc(C(=O)N[C@@H](CCC(=O)O)C(=O)O)cc1 [methotrexate]
lowering of methotrexate concentration for same percent cell killing [3]: 10000 fold

insulin
apoptotic cell populations [4, 10]: higher percentage of apoptotic cell populations
inhibition of cell growth [4, 10]: greater inhibition of cell growth
percent of S-phase cells ([4]; treatment of insulin): increase in the percent of S-phase cells
increase in the uptake of elipticine [5]: 2 fold
stimulation of uptake of methotrexate [6]: 50%
S-phase fraction [7]: 66%
Comas ([8]; 950 insulin injections): 0 n
Deaths ([8]; 950 insulin injections): 0 n
Time Interval of Hypoglycemia ([8]; 950 insulin injections): 5-25 m
Hypoglycemia range ([8]; insulin induced hypoglycemia with chemotherapy at 10% standard dose, initial blood glucose 3.86-7.95 mmol/l, 950 insulin injections): 1.0 to 3.4 mmol/L
Conclusion ([8]; insulin-induced hypoglycemia safety profile): safe
time to lower blood glucose ([9]; bolus injection of insulin at initiation of clamp): around 30 minutes
blood glucose levels, range in practice ([9]; steady state of insulin and glucose for two hours, target 30-50 mg/dL): 22 to 51 mg/dL
